The supplement of paper PMC9013687

Experiments:
[1] = tested on: Danio rerio embryo
Method: (§1)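 Zebrafish embryos (UFZ-OBI strain) were exposed from 2 hpf for 48 h (2 dpf) or 96 h (4 dpf) at 28 °C; spontaneous tail coiling was scored at 25 hpf. Morphological features from automated image analysis (FishInspector), heart rate and locomotor response were fitted with drc models. Quantal endpoints were dichotomised at 2.5 SD from controls and fitted with a log-logistic model; heart rate, pigmentation and STC were normalised to the replicate control mean. Betamethasone was tested as betamethasone dipropionate, diflorasone as diflorasone diacetate.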

[2] = tested on: Danio rerio embryo; assay: EC10 Pigmentation decrease; higher = less potent; settings: exposure time: 2 dpf
Method: as §1

[3] = tested on: Danio rerio embryo; assay: EC20 Head trunk angle_Decrease; higher = less potent; settings: exposure time: 2 dpf
Method: as §1

[4] = tested on: Danio rerio embryo; assay: EC10 Any effect; higher = less potent
Method: as §1

[5] = tested on: Danio rerio embryo; assay: EC20 Head size_Decrease; higher = less potent; settings: exposure time: 2 dpf
Method: as §1

[6] = tested on: Danio rerio embryo; assay: EC20 Any effect; higher = less potent
Method: as §1

[7] = tested on: Danio rerio embryo; assay: EC50 Eye size_Decrease; settings: exposure time: 2 dpf
Method: as §1

[8] = tested on: Danio rerio embryo; assay: spontaneous tail coiling frequency (coils/min/embryo); higher = more spontaneous movement; settings: 25 hpf
Method: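 Spontaneous tail coilings of zebrafish embryos exposed from 2 hpf were recorded at 24-25 hpf in 1-min videos and detected by a KNIME workflow from grey-value variance. Betamethasone was tested as the dipropionate, diflorasone as the diacetate.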

[9] = tested on: Danio rerio embryo; assay: EC10 Lack of SB; higher = less potent; settings: exposure time: 4 dpf
Method: as §1

[10] = tested on: Danio rerio embryo; assay: EC10 Head size_Decrease; higher = less potent; settings: exposure time: 2 dpf
Method: as §1

[11] = tested on: Danio rerio embryo; assay: EC10 Eye size_Decrease; higher = less potent; settings: exposure time: 2 dpf
Method: as §1

[12] = tested on: Danio rerio embryo; assay: EC50 Pericard size_Increase
Method: as §1

[13] = tested on: Danio rerio embryo; assay: EC10 Bladder size_Decrease; higher = less potent; settings: exposure time: 4 dpf
Method: as §1

[14] = tested on: Danio rerio embryo; assay: EC10 Pericard size_Increase; higher = less potent
Method: as §1

[15] = tested on: Danio rerio embryo; assay: EC10 Curvature_Increase; higher = less potent
Method: as §1

[16] = tested on: Danio rerio embryo; assay: EC20 Eye size_Decrease; higher = less potent; settings: exposure time: 2 dpf
Method: as §1

[17] = tested on: Danio rerio embryo; assay: EC20 Lack of SB; higher = less potent; settings: exposure time: 4 dpf
Method: as §1

[18] = tested on: Danio rerio embryo; assay: EC20 Bladder size_Decrease; higher = less potent; settings: exposure time: 4 dpf
Method: as §1

[19] = tested on: Danio rerio embryo; assay: EC50 Head size_Decrease; settings: exposure time: 2 dpf
Method: as §1

[20] = tested on: Danio rerio embryo; assay: EC20 Pericard size_Increase; higher = less potent
Method: as §1

[21] = tested on: Danio rerio embryo; assay: EC20 Pigmentation decrease; higher = less potent; settings: exposure time: 2 dpf
Method: as §1

[22] = tested on: Danio rerio embryo; settings: exposure time: 4 dpf
Method: as §1

[23] = tested on: Danio rerio embryo; assay: EC10 Head trunk angle_Decrease; higher = less potent; settings: exposure time: 2 dpf
Method: as §1

[24] = tested on: Danio rerio embryo; assay: EC50 Bladder size_Decrease; settings: exposure time: 4 dpf
Method: as §1

[25] = tested on: Danio rerio embryo; settings: exposure time: 2 dpf
Method: as §1

[26] = tested on: Danio rerio embryo; assay: EC50 Curvature_Increase
Method: as §1

[27] = tested on: Danio rerio embryo; assay: EC20 Body length_Decrease; higher = less potent; settings: exposure time: 2 dpf
Method: as §1

[28] = tested on: Danio rerio embryo; assay: EC50 Body length_Decrease; settings: exposure time: 2 dpf
Method: as §1

[29] = tested on: Danio rerio embryo; assay: EC50 Head trunk angle_Decrease; settings: exposure time: 2 dpf
Method: as §1

[30] = tested on: Danio rerio embryo; assay: EC20 Curvature_Increase; higher = less potent
Method: as §1

[31] = tested on: Danio rerio embryo; assay: EC10 Body length_Decrease; higher = less potent; settings: exposure time: 2 dpf
Method: as §1

COC(=O)Nc1nc2ccccc2[nH]1 [Carbendazim]
Settings	EC10 Any effect [µM]	EC10 Curvature Increase [µM]	EC10 Pericard size Increase [µM]	EC20 Any effect [µM]	EC20 Curvature Increase [µM]	EC20 Pericard size Increase [µM]	EC50 Any effect [µM]	EC50 Curvature Increase [µM]	EC50 Pericard size Increase [µM]	spontaneous tail coiling frequency
[1], exposure time: 2 dpf	–	–	–	–	–	–	3.05	–	–	–
[1], exposure time: 4 dpf	–	–	–	–	–	–	3.09	–	–	–
[4], exposure time: 2 dpf	2.93	–	–	–	–	–	–	–	–	–
[4], exposure time: 4 dpf	2.72	–	–	–	–	–	–	–	–	–
[6], exposure time: 2 dpf	–	–	–	2.98	–	–	–	–	–	–
[6], exposure time: 4 dpf	–	–	–	2.85	–	–	–	–	–	–
[8], 0.23 µM	–	–	–	–	–	–	–	–	–	2.14
[8], 0.344 µM	–	–	–	–	–	–	–	–	–	1.91
[8], 0.517 µM	–	–	–	–	–	–	–	–	–	2.25
[8], 0.775 µM	–	–	–	–	–	–	–	–	–	2.51
[8], 1.16 µM	–	–	–	–	–	–	–	–	–	1.06
[8], 1.162 µM	–	–	–	–	–	–	–	–	–	2.68
[8], 1.74 µM	–	–	–	–	–	–	–	–	–	1.81
[8], 1.743 µM	–	–	–	–	–	–	–	–	–	1.56
[8], 2.615 µM	–	–	–	–	–	–	–	–	–	2.98
[8], 2.62 µM	–	–	–	–	–	–	–	–	–	2.11
[8], 3.138 µM	–	–	–	–	–	–	–	–	–	4.11
[8], 3.661 µM	–	–	–	–	–	–	–	–	–	3.75
[12], exposure time: 2 dpf	–	–	–	–	–	–	–	–	3.43	–
[12], exposure time: 4 dpf	–	–	–	–	–	–	–	–	2.99	–
[14], exposure time: 2 dpf	–	–	2.94	–	–	–	–	–	–	–
[14], exposure time: 4 dpf	–	–	2.63	–	–	–	–	–	–	–
[15], exposure time: 2 dpf	–	2.71	–	–	–	–	–	–	–	–
[15], exposure time: 4 dpf	–	2.68	–	–	–	–	–	–	–	–
[20], exposure time: 2 dpf	–	–	–	–	–	3.11	–	–	–	–
[20], exposure time: 4 dpf	–	–	–	–	–	2.76	–	–	–	–
[26], exposure time: 2 dpf	–	–	–	–	–	–	–	3.27	–	–
[26], exposure time: 4 dpf	–	–	–	–	–	–	–	3.26	–	–
[30], exposure time: 2 dpf	–	–	–	–	2.9	–	–	–	–	–
[30], exposure time: 4 dpf	–	–	–	–	2.88	–	–	–	–	–

Settings	EC10 Bladder size Decrease [µM]	EC10 Body length Decrease [µM]	EC10 Eye size Decrease [µM]	EC10 Head size Decrease [µM]	EC10 Head trunk angle Decrease [µM]	EC10 Lack of SB [µM]	EC10 Pigmentation decrease [µM]	EC20 Bladder size Decrease [µM]	EC20 Body length Decrease [µM]	EC20 Eye size Decrease [µM]	EC20 Head size Decrease [µM]	EC20 Head trunk angle Decrease [µM]	EC20 Lack of SB [µM]	EC20 Pigmentation decrease [µM]	EC50 Bladder size Decrease [µM]	EC50 Body length Decrease [µM]	EC50 Eye size Decrease [µM]	EC50 Head size Decrease [µM]	EC50 Head trunk angle Decrease [µM]	EC50 Lack of SB [µM]	EC50 Pigmentation decrease [µM]
[2]	–	–	–	–	–	–	2.53	–	–	–	–	–	–	–	–	–	–	–	–	–	–
[3]	–	–	–	–	–	–	–	–	–	–	–	2.98	–	–	–	–	–	–	–	–	–
[5]	–	–	–	–	–	–	–	–	–	–	3.05	–	–	–	–	–	–	–	–	–	–
[7]	–	–	–	–	–	–	–	–	–	–	–	–	–	–	–	–	3.3	–	–	–	–
[9]	–	–	–	–	–	2.3	–	–	–	–	–	–	–	–	–	–	–	–	–	–	–
[10]	–	–	–	2.81	–	–	–	–	–	–	–	–	–	–	–	–	–	–	–	–	–
[11]	–	–	2.69	–	–	–	–	–	–	–	–	–	–	–	–	–	–	–	–	–	–
[13]	0.977	–	–	–	–	–	–	–	–	–	–	–	–	–	–	–	–	–	–	–	–
[16]	–	–	–	–	–	–	–	–	–	2.9	–	–	–	–	–	–	–	–	–	–	–
[17]	–	–	–	–	–	–	–	–	–	–	–	–	2.44	–	–	–	–	–	–	–	–
[18]	–	–	–	–	–	–	–	1.33	–	–	–	–	–	–	–	–	–	–	–	–	–
[19]	–	–	–	–	–	–	–	–	–	–	–	–	–	–	–	–	–	3.51	–	–	–
[21]	–	–	–	–	–	–	–	–	–	–	–	–	–	2.8	–	–	–	–	–	–	–
[22]	–	–	–	–	–	–	–	–	–	–	–	–	–	–	–	–	–	–	–	2.7	–
[23]	–	–	–	–	2.73	–	–	–	–	–	–	–	–	–	–	–	–	–	–	–	–
[24]	–	–	–	–	–	–	–	–	–	–	–	–	–	–	2.25	–	–	–	–	–	–
[25]	–	–	–	–	–	–	–	–	–	–	–	–	–	–	–	–	–	–	–	–	3.34
[27]	–	–	–	–	–	–	–	–	2.95	–	–	–	–	–	–	–	–	–	–	–	–
[28]	–	–	–	–	–	–	–	–	–	–	–	–	–	–	–	3.04	–	–	–	–	–
[29]	–	–	–	–	–	–	–	–	–	–	–	–	–	–	–	–	–	–	3.47	–	–
[31]	–	2.9	–	–	–	–	–	–	–	–	–	–	–	–	–	–	–	–	–	–	–

CC(=O)Nc1ccc(O)cc1 [acetaminophen]
[8]
Settings	spontaneous tail coiling frequency
230 µM	2.54
470 µM	1.5
940 µM	2.42
1875 µM	2.5
1876 µM	3.01
3750 µM	3.63
6250 µM	3.44
7500 µM	1.69
15000 µM	0
